# Laboratory results: patent publication US8471005B2 (Cephalon, Inc., priority 2008, dated 2013)
# pIC50: −log10 of the molar value. Where two headings read alike, the source gives them in different places.
# Tests used:
# [1] = biological target: T1, ALK (Homo sapiens, UniProt Q9UM73); experiment: ALK Kinase Assay (ELISA/TRF, PLC-γ substrate); format: biochemical; settings: read-out: ALK Potency
# T1 construct: host or cells: baculovirus expression system
# Summary of the method: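 Time-resolved fluorescence ELISA using Eu-N1 PT66 antibody to detect phosphorylated PLC-γ (coated at 10 μg/mL). Enzyme at 30 ng/ml ALK; 15 min incubation, 37° C.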
# [2] = biological target: T2, JAK2 (Homo sapiens, UniProt O60674); experiment: Recombinant Human JAK2 Kinase Assay (TRF); format: biochemical; settings: read-out: JAK2 Potency
# T2 construct: host or cells: baculovirus expression system
# Summary of the method: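 Kinase activity of baculovirus-expressed JAK2 is followed on a surface-immobilised biotinylated peptide, with the reaction run for 20 min at room temperature in buffer containing 0.2 μM ATP and manganese. Phosphorylation is read with Eu-N1 PY100 antibody.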
# [3] = ALK kinase inhibition, 1 μM ATP
# [4] = JAK2 kinase inhibition, 0.2 μM ATP
# T1 sequence (Q9UM73 19-1620): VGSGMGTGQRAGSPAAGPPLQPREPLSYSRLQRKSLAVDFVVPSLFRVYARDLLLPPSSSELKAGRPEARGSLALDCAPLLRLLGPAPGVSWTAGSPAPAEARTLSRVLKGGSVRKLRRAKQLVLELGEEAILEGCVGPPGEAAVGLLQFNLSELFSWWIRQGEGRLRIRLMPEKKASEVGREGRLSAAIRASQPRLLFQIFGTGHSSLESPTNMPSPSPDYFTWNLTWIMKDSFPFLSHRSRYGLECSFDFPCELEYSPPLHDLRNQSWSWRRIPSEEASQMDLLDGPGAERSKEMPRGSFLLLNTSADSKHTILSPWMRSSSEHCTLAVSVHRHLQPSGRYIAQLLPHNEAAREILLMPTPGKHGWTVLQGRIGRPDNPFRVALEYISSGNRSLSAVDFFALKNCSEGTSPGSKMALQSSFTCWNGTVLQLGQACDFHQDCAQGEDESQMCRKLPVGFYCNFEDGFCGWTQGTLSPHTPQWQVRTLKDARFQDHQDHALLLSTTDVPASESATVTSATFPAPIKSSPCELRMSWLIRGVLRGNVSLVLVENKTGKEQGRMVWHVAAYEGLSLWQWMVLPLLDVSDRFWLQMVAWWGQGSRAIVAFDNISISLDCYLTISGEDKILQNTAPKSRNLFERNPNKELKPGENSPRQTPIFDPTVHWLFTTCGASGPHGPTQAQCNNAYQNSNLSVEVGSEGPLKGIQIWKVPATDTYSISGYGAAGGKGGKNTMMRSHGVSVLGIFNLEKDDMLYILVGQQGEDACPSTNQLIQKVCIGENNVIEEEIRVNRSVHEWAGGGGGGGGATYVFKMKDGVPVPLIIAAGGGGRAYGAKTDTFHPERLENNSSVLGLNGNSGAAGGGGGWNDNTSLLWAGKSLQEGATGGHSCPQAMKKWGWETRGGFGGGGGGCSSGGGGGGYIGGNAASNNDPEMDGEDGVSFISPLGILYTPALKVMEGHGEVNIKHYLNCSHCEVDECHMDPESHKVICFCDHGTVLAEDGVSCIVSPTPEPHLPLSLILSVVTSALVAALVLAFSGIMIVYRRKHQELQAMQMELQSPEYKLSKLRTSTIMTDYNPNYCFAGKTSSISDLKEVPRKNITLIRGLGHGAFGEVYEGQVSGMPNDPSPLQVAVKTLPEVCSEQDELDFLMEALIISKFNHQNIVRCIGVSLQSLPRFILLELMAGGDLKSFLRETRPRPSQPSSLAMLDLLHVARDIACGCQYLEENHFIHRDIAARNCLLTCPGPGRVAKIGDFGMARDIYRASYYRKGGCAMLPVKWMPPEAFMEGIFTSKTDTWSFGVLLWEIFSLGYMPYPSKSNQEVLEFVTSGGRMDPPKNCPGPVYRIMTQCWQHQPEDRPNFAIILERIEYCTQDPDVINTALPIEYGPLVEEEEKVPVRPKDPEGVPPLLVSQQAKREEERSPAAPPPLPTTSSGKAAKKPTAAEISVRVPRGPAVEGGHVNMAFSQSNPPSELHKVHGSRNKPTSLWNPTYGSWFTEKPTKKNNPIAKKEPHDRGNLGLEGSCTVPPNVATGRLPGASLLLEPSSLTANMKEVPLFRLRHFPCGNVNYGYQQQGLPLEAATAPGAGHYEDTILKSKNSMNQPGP
# T2 sequence (O60674 whole entry): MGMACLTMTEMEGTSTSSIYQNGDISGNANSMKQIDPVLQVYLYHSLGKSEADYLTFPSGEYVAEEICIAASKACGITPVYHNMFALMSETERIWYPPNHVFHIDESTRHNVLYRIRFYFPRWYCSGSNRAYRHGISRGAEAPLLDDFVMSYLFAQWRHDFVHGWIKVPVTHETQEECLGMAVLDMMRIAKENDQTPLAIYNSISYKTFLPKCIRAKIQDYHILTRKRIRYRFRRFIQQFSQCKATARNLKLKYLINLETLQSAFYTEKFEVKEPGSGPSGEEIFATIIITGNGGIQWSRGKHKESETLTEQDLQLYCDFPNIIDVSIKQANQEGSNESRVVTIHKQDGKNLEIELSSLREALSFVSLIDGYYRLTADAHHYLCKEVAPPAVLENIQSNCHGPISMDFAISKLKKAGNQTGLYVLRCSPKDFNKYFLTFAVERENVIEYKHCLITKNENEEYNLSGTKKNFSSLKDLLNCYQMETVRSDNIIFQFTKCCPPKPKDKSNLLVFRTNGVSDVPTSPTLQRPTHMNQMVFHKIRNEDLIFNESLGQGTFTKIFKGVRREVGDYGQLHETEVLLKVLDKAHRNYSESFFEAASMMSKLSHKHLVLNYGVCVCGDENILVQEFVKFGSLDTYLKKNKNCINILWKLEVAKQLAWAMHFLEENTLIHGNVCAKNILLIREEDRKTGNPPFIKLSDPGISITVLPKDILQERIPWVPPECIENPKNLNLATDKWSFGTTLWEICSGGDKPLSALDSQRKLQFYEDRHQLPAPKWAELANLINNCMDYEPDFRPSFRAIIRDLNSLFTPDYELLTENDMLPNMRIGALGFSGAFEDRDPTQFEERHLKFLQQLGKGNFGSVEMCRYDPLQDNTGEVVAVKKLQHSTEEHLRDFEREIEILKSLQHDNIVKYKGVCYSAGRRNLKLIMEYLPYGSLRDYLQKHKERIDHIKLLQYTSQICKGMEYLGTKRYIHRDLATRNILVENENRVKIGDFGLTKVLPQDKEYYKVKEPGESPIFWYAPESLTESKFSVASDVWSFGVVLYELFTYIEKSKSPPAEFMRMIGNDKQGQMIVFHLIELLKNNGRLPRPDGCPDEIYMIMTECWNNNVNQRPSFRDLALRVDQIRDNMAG
SMILES,pIC50 ([1]; ALK Kinase Inhibition),pIC50 ([2]; JAK2 Kinase Inhibition),"pIC50 [1, 3]","pIC50 [2, 4]"
"CN1C(=O)Cc2cc(Nc3ncc4ccc(-c5ccccc5N(C)S(C)(=O)=O)n4n3)ccc21 [Example 375, N-Methyl-N-{2-[2-(1-methyl-2-oxo-2,3-dihydro-1H-indol-5-ylamino)-pyrrolo[2,1-f][1,2,4]triazin-7-yl]-phenyl}-methanesulfonamide]",6.00 to 7.00,> 7.00,–,–
"COc1ccccc1-c1ccc2cnc(Nc3ccc(N4CCCC(CN5CCN(C)CC5)C4)cc3)nn12 (centres unmarked) [Example 456, [7-(2-Methoxy-phenyl)-pyrrolo[2,1-f][1,2,4]triazin-2-yl]-{4-[3-(4-methyl-piperazin-1-ylmethyl)-piperidin-1-yl]-phenyl}-amine]",> 7.00,> 7.00,–,–
"CN1CCOCc2cc(Nc3ncc4ccc(-c5cccc(NS(C)(=O)=O)c5)n4n3)ccc21 [Example 619, N-{3-[2-(1-Methyl-1,2,3,5-tetrahydro-benzo[e][1,4]oxazepin-7-ylamino)-pyrrolo[2,1-f][1,2,4]triazin-7-yl]-phenyl}-methanesulfonamide]",–,–,6.00 to 7.00,> 7.00
"COc1ccc(-c2ccc3cnc(Nc4ccc5c(c4)CCN(CC(N)=O)C5)nn23)cn1 [Example 916, 2-{6-[7-(6-Methoxy-pyridin-3-yl)-pyrrolo[2,1-f][1,2,4]triazin-2-ylamino]-3,4-dihydro-1H-isoquinolin-2-yl}-acetamide]",–,–,< 5.00,> 7.00
"COc1cc(-c2ccc3cnc(Nc4ccc(C5CCN(CC(N)=O)CC5)cc4)nn23)c(OC)nn1 [Example 580, 2-(4-{4-[7-(3,6-Dimethoxy-pyridazin-4-yl)-pyrrolo[2,1-f][1,2,4]triazin-2-ylamino]-phenyl}-piperidin-1-yl)-acetamide]",–,–,6.00 to 7.00,> 7.00
"CN1CCN(C)C(c2cccc(Nc3ncc4ccc(-c5cccc(S(=O)(=O)N6CCCC6)c5)n4n3)c2)C1=O (centres unmarked) [Example 1079, 1,4-Dimethyl-3-(3-{7-[3-(pyrrolidine-1-sulfonyl)-phenyl]-pyrrolo[2,1-f][1,2,4]triazin-2-ylamino}-phenyl)-piperazin-2-one]",–,–,5.00 to 6.00,> 7.00
"CN1CCN(c2cccc(Nc3ncc4ccc(-c5cccc(COC(C)(C)C)c5)n4n3)c2)CC1 [Example 1558, [7-(3-tert-Butoxymethyl-phenyl)-pyrrolo[2,1-f][1,2,4]triazin-2-yl]-[3-(4-methyl-piperazin-1-yl)-phenyl]-amine]",6.00 to 7.00,> 7.00,–,–
"CCN1CCCC(CC)(c2ccc(Nc3ncc4ccc(-c5ccccc5OC)n4n3)cc2)C1 (racemic) [Example 777, (±)-[4-(1,3-Diethyl-piperidin-3-yl)-phenyl]-[7-(2-methoxy-phenyl)pyrrolo-[2,1-f][1,2,4]triazin-2-yl]-amine]",–,–,> 7.00,> 7.00
"COc1ccccc1-c1ccc2cnc(Nc3ccc4c(c3)COCCN4C)nn12 [Example 618, [7-(2-Methoxy-phenyl)-pyrrolo[2,1-f][1,2,4]triazin-2-yl]-(1-methyl-1,2,3,5-tetrahydro-benzo[e][1,4]oxazepin-7-yl)-amine]",–,–,6.00 to 7.00,> 7.00
"C=Cc1cc(-c2ccc(S(C)(=O)=O)cc2)n2nc(Nc3ccc(N4CCN(C)CC4)cc3)ncc12 [Example 104, [7-(4-Methanesulfonyl-phenyl)-5-vinyl-pyrrolo[2,1-f][1,2,4]triazin-2-yl]-[4-(4-methyl-piperazin-1-yl)-phenyl]-amine]",5.00 to 6.00,> 7.00,–,–
"COc1cc([C@@H]2CCN(CCF)C[C@@H]2O)ccc1Nc1ncc2ccc(-c3ccccc3N(C)S(C)(=O)=O)n2n1 (racemic) [Example 843, (±)-N-[2-(2-{4-[(3R,4S)-1-(2-Fluoro-ethyl)-3-hydroxy-piperidin-4-yl]-2-methoxy-phenylamino}-pyrrolo[2,1-f][1,2,4]triazin-7-yl)-phenyl]-N-methyl-methanesulfonamide]",–,–,> 7.00,6.00 to 7.00

# Other lines, results leading:
pIC50 ([1]; ALK Kinase Inhibition),pIC50 ([2]; JAK2 Kinase Inhibition),"pIC50 [1, 3]","pIC50 [2, 4]",SMILES
–,–,5.00 to 6.00,> 7.00,"Cc1nc(-c2ccc3cnc(Nc4ccc(N5CCOCC5)cc4)nn23)cn1C [Example 1044, [7-(1,2-Dimethyl-1H-imidazol-4-yl)-pyrrolo[2,1-f][1,2,4]triazin-2-yl]-(4-morpholin-4-yl-phenyl)-amine]"
> 7.00,> 7.00,–,–,"CN1CCN(c2ccc(Nc3ncc4ccc(-c5ccc6c(c5)OCCO6)n4n3)cc2)CC1 [Example 8, [7-(2,3-Dihydro-benzo[1,4]dioxin-6-yl)-pyrrolo[2,1-f][1,2,4]triazin-2-yl]-[4-(4-methyl-piperazin-1-yl)-phenyl]-amine]"
> 7.00,> 7.00,–,–,"COc1ccccc1-c1ccc2cnc(Nc3ccc(N4CCC(N5CCN(C)CC5)CC4)cc3)nn12 [Example 310, [7-(2-Methoxy-phenyl)-pyrrolo[2,1-f][1,2,4]triazin-2-yl]-{4-[4-(4-methyl-piperazin-1-yl)-piperidin-1-yl]-phenyl}-amine]"
–,–,5.00 to 6.00,> 7.00,"Cn1cc(-c2ccc3cnc(Nc4ccc5c(c4)NC(=O)C5)nn23)cn1 [Example 646, 6-[7-(1-Methyl-1H-pyrazol-4-yl)-pyrrolo[2,1-f][1,2,4]triazin-2-ylamino]-1,3-dihydro-indol-2-one]"
–,–,> 7.00,6.00 to 7.00,"CCN(c1ccccc1-c1ccc2cnc(Nc3ccc(C4CCN(C[C@@H](C)O)CC4)cc3OC)nn12)S(C)(=O)=O [Example 873, N-Ethyl-N-[2-(2-{4-[1-((R)-2-hydroxy-propyl)-piperidin-4-yl]-2-methoxy-phenylamino}-pyrrolo[2,1-f][1,2,4]triazin-7-yl)-phenyl]-methanesulfonamide]"
–,–,> 7.00,< 5.00,"COc1cc(C2CCN(CC(N)=O)CC2)ccc1Nc1ncc2ccc(-c3ccccc3-n3cccn3)n2n1 [Example 854, 2-(4-{3-Methoxy-4-[7-(2-pyrazol-1-yl-phenyl)-pyrrolo[2,1-f][1,2,4]triazin-2-ylamino]-phenyl}-piperidin-1-yl)-acetamide]"
< 5.00,> 7.00,–,–,"CN(C)S(=O)(=O)c1ccc(-c2ccc3cnc(Nc4ccc(N5CCCCC5)cc4)nn23)cc1 [Example 86, N,N-Dimethyl-4-[2-(4-piperidin-1-yl-phenylamino)-pyrrolo[2,1-f][1,2,4]triazin-7-yl]-benzenesulfonamide]"
–,–,< 5.00,> 7.00,"CC(C)(C)NS(=O)(=O)c1cccc(-c2ccc3cnc(Nc4ccc(-c5cccnc5)cc4)nn23)c1 [Example 1085, N-tert-Butyl-3-[2-(4-pyridin-3-yl-phenylamino)-pyrrolo[2,1-f][1,2,4]triazin-7-yl]-benzenesulfonamide]"
–,–,< 5.00,> 7.00,"CCNC(=O)Nc1cccc(Nc2ncc3ccc(-c4ccc(OC)nc4)n3n2)c1 [Example 901, 1-Ethyl-3-{3-[7-(6-methoxy-pyridin-3-yl)-pyrrolo[2,1-f][1,2,4]triazin-2-ylamino]-phenyl}-urea]"
–,–,> 7.00,5.00 to 6.00,"COc1cc(N2CCC(N3CCCC3)CC2)ccc1Nc1ncc2ccc(-c3ccccc3N(C)S(C)(=O)=O)n2n1 [Example 480, N-(2-{2-[2-Methoxy-4-(4-pyrrolidin-1-yl-piperidin-1-yl)-phenylamino]-pyrrolo[2,1-f][1,2,4]triazin-7-yl}-phenyl)-N-methyl-methanesulfonamide]"
–,–,6.00 to 7.00,5.00 to 6.00,"COc1cc(N2CCC(N3CCOCC3)CC2)ccc1Nc1ncc2ccc(-c3cccc4cccnc34)n2n1 [Example 512, [2-Methoxy-4-(4-morpholin-4-yl-piperidin-1-yl)-phenyl]-(7-quinolin-8-yl-pyrrolo[2,1-f][1,2,4]triazin-2-yl)-amine]"
< 5.00,5.00 to 6.00,–,–,"c1ccc(-c2ccc3cnc(NCCCN4CCOCC4)nn23)cc1 [Example 29, (3-Morpholin-4-yl-propyl)-(7-phenyl-pyrrolo[2,1-f][1,2,4]triazin-2-yl)-amine]"
–,–,< 5.00,5.00 to 6.00,"CN(c1ccccc1-c1ccc2cnc(OCCN3CCN(c4ccc(N)cc4)CC3)nn12)S(C)(=O)=O [Example 1172, N-[2-(2-{2-[4-(4-Amino-phenyl)-piperazin-1-yl]-ethoxy}-pyrrolo[2,1-f][1,2,4]triazin-7-yl)-phenyl]-N-methyl-methanesulfonamide]"
6.00 to 7.00,> 7.00,–,–,"COc1ccc(Cl)cc1-c1ccc2cnc(Nc3ccc(C(=O)N4CCOCC4)cc3)nn12 [Example 315, {4-[7-(5-Chloro-2-methoxy-phenyl)-pyrrolo[2,1-f][1,2,4]triazin-2-ylamino]-phenyl}-morpholin-4-yl-methanone]"
–,–,6.00 to 7.00,> 7.00,"CC(C)(C)NS(=O)(=O)c1cccc(-c2ccc3cnc(Nc4ccc5ncn(CCN6CCOCC6)c5c4)nn23)c1 [Example 1326, N-tert-Butyl-3-{2-[3-(2-morpholin-4-yl-ethyl)-3H-benzimidazol-5-ylamino]-pyrrolo[2,1-f][1,2,4]triazin-7-yl}-benzenesulfonamide]"
–,–,5.00 to 6.00,> 7.00,"CC(C)(C)NS(=O)(=O)c1cccc(-c2ccc3cnc(Nc4ccc(=O)[nH]c4)nn23)c1 [Example 590, N-tert-Butyl-3-[2-(6-oxo-1,6-dihydro-pyridin-3-ylamino)-pyrrolo[2,1-f][1,2,4]triazin-7-yl]-benzenesulfonamide]"
–,–,6.00 to 7.00,> 7.00,"CCN(CC)C1CCN(c2ccc(Nc3ncc4ccc(-c5cccc(S(C)(=O)=O)c5)n4n3)cc2)CC1 [Example 1137, [4-(4-Diethylamino-piperidin-1-yl)-phenyl]-[7-(3-methanesulfonyl-phenyl)-pyrrolo[2,1-f][1,2,4]triazin-2-yl]-amine]"
